Measurements reported in patent US20220324865A1 (Bayer Aktiengesellschaft, priority 2018, published 2022).

Biological target: T1, human EP3 receptor (Homo sapiens, UniProt P43115)
T1 construct: expressed in transfected cells; host or cells: CHO K1 (Chinese Hamster Ovary), stably co-transfected with Galpha16 and mitochondrial clytin
T1 sequence (P43115 1-390): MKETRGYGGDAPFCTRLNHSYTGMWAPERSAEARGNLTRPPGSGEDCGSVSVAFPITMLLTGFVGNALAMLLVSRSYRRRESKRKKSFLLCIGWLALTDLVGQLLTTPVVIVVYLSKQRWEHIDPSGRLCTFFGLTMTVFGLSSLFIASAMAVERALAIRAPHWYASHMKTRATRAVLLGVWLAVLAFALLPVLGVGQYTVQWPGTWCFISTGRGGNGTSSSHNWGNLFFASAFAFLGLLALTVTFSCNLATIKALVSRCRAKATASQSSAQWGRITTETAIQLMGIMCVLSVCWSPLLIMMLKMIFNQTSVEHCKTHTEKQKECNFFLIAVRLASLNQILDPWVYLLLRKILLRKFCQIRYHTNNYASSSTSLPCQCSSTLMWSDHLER
Assay: Cellular in vitro assay for determining EP3 receptor activity (human EP3 cell line, sulprostone-stimulated calcium luminescence)
Format: cell-based
Settings: CHO cells expressing human EP3 and mitochondrial Clytin; antagonist mode, sulprostone at EC50; read-out: EP3 CHO mtCLY ANTAG IC50
Procedure, shortened: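 Antagonist activity was measured as inhibition of the luminescent calcium signal elicited by EC50 sulprostone, following 10 min compound pretreatment. The cell line was recombinant CHO K1 co-expressing human EP3, Gα16 and the photoprotein Clytin, reconstituted with coelenterazine.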

Work on `Cc1c(C(=O)N[C@@H](CO)c2ccccc2)nn2c(C)c(-c3ccc4ccccc4c3)[nH]c(=O)c12` [Example 3-71, N-[(1R)-2-Hydroxy-1-phenylethyl]-3,7-dimethyl-6-(naphthalen-2-yl)-4-oxo-4,5-dihydropyrazolo[1,5-a]pyrazine-2-carboxamide] yielded an IC50 of 9.45 nM.

`COCc1c(C(=O)NC2(c3ccc(F)cc3)CN(C)C2)nn2cc(-c3ccc4ccccc4c3)[nH]c(=O)c12` [Example 1-21, N-[3-(4-Fluorophenyl)-1-methylazetidin-3-yl]-3-(methoxymethyl)-6-(naphthalen-2-yl)-4-oxo-4,5-dihydropyrazolo[1,5-a]pyrazine-2-carboxamide] was tested, and the IC50 was 1.25 nM.

`Cc1c(C(=O)NC(C)c2ccccc2OC(F)F)nn2c(C)c(-c3ccc4ccccc4c3)[nH]c(=O)c12` (stereo not drawn) [Example 3-43, N-[1-[2-(Difluoromethoxy)phenyl]ethyl]-3,7-dimethyl-6-(2-naphthyl)-4-oxo-5H-pyrazolo[1,5-a]pyrazine-2-carboxamide] gave an IC50 of 3.85 nM.

In the case of `CCN1CCC(NC(=O)c2nn3cc(-c4ccc(Cl)c(C)c4)[nH]c(=O)c3c2C2CC2)(C(F)(F)F)C1` (single isomer, unassigned) [6-293], the IC50 is reported as 5.7 nM.

With `COc1ccc([C@@H](C)NC(=O)c2cc3c(=O)[nH]c(-c4ccc5c(c4)COCC5)cn3n2)cn1` [Example 1-51, 6-(3,4-Dihydro-1H-isochromen-7-yl)-N-[(1R)-1-(6-methoxypyridin-3-yl)ethyl]-4-oxo-4,5-dihydropyrazolo[1,5-a]pyrazine-2-carboxamide] the IC50 was 4 nM.

`Cc1ccnc(C(C)NC(=O)c2nn3cc(-c4cnc5cccc(C)c5c4)[nH]c(=O)c3c2C(C)C)n1` (stereo not drawn) [Example 4-47, 3-Isopropyl-N-[1-(4-methylpyrimidin-2-yl)ethyl]-6-(5-methyl-3-quinolyl)-4-oxo-5H-pyrazolo[1,5-a]pyrazine-2-carboxamide] showed an IC50 of 3.1 nM.

In the case of `Cc1ccc(-c2cn3nc(C(=O)NC4(c5ccc(F)cc5)CCN(C)C4)cc3c(=O)[nH]2)cc1C` (racemic) [6-362], the IC50 is reported as 27 nM.

With `Cc1ccc(-c2cn3nc(C(=O)N[C@@H](c4ccc(F)cc4)C(C)(C)O)c(C4CC(F)(F)C4)c3c(=O)[nH]2)cc1Cl` [6-559] the IC50 was 6.07 nM.

Compound `Cc1cc(-c2cn3nc(C(=O)NC(C)C4CCC4)c(C(F)(F)F)c3c(=O)[nH]2)ccc1Cl` (single isomer, unassigned) [6-224] has an IC50 of 2 nM.

Work on `O=C(N[C@H](CCO)c1ccc(F)cc1)c1nn2cc(-c3ccc(Cl)c(C(F)F)c3)[nH]c(=O)c2c1C1CC1` [6-668] yielded an IC50 of 1.09 nM.

In the case of `Cc1cc(-c2cn3nc(C(=O)N[C@@H](c4ccc(F)cc4)C(C)(C)O)c(C(C)C)c3c(=O)[nH]2)ccc1Cl` [6-606], the IC50 is reported as 2.3 nM.

`CC(COc1cc(Cl)cc(Cl)c1)NC(=O)c1nn2cc(-c3ccc4ccccc4c3)[nH]c(=O)c2c1C(F)(F)F` (stereo not drawn) [Example 1-118, N-[2-(3,5-Dichlorophenoxy)-1-methylethyl]-6-(2-naphthyl)-4-oxo-3-(trifluoromethyl)-5H-pyrazolo-[1,5-a]pyrazine-2-carboxamide] was tested, and the IC50 was 3.95 nM.

In the case of `COC[C@@H](NC(=O)c1nn2cc(-c3cnc4cccc(C)c4c3)[nH]c(=O)c2c1C(C)C)c1ccccc1` [Example 1-87, N-[(1S)-2-Methoxy-1-phenylethyl]-6-(5-methylquinolin-3-yl)-4-oxo-3-(propan-2-yl)-4,5-dihydropyrazolo[1,5-a]pyrazine-2-carboxamide], the IC50 is reported as 2.85 nM.

`Cc1ccc(-c2cn3nc(C(=O)N[C@H](CCO)c4ccc(F)cc4)c(C(F)(F)F)c3c(=O)[nH]2)cc1C` [Example 1-94, 6-(3,4-Dimethylphenyl)-N-[(1R)-1-(4-fluorophenyl)-3-hydroxpropyl]-4-oxo-3-(trifluoromethyl)-4,5-dihydropyrazolo[1,5-a]pyrazine-2-carboxamide] showed an IC50 of 0.765 nM.

With `Cc1ccc(-c2cn3nc(C(=O)NC(C)C(O)C(F)(F)F)cc3c(=O)[nH]2)cc1C` (stereo not drawn) [6-355] the IC50 was 5.8 nM.

With `Cc1ccc(-c2cn3nc(C(=O)N[C@@H](c4ccc(F)cc4)C(F)(F)CO)c(C)c3c(=O)[nH]2)c(F)c1F` [6-413] the IC50 was 3.43 nM.

Work on `Cc1ccc(-c2cn3nc(C(=O)N[C@@H](C)C4CC4)c(C4CC4)c3c(=O)[nH]2)cc1F` [6-380] yielded an IC50 of 1.3 nM.

In the case of `Cc1ccc(-c2cn3nc(C(=O)N[C@@H](c4ccc(F)cc4)C(C)(C)O)c(C4CC4)c3c(=O)[nH]2)c(F)c1F` [6-596], the IC50 is reported as 2.8 nM.

With `CC(C)(O)[C@@H](NC(=O)c1nn2cc(-c3cc(F)c(Cl)c(F)c3)[nH]c(=O)c2c1C1CC1)c1ccc(F)cc1` [6-475] the IC50 was 2.58 nM.

Work on `Cc1ccc(-c2cn3nc(C(=O)N[C@@H](C)CCO)c(C4CC4)c3c(=O)[nH]2)cc1Cl` [6-270] yielded an IC50 of 2.67 nM.

Work on `CCn1cc(CNC(=O)c2nn3cc(-c4ccc5ccccc5c4)[nH]c(=O)c3c2C#N)c(C)n1` [Example 3-44, 3-Cyano-N-[(1-ethyl-3-methyl-1H-pyrazol-4-yl)methyl]-6-(naphthalen-2-yl)-4-oxo-4,5-dihydropyrazolo[1,5-a]pyrazine-2-carboxamide] yielded an IC50 of 2.6 nM.

Work on `O=C(N[C@H](CCO)c1ccc(F)cc1)c1nn2cc(-c3ccc(Cl)c(Cl)c3)[nH]c(=O)c2c1C1CC1` [6-425] yielded an IC50 of 0.52 nM.

For `O=C(NC(c1cccc(F)c1)C(F)F)c1cc2c(=O)[nH]c(-c3ccc4ccccc4c3)cn2n1` (stereo not drawn) [Example 2-13, N-[2,2-Difluoro-1-(3-fluorophenyl)ethyl]-6-(2-naphthyl)-4-oxo-4,5-dihydropyrazolo[1,5-a]pyrazine-2-carboxamide], the IC50 was 1.3 nM.

`O=C(NCC(O)C(F)(F)F)c1nn2cc(-c3ccc(Cl)c(Cl)c3)[nH]c(=O)c2c1C1CC1` (single isomer, unassigned) [6-416] was tested, and the IC50 was 2.8 nM.

In the case of `O=C(NC(CCn1cncn1)c1ccccc1)c1cc2c(=O)[nH]c(-c3ccc4ccccc4c3)cn2n1` (stereo not drawn) [6-48], the IC50 is reported as 5.7 nM.

`Cc1c(C(=O)NC(CO)c2ccc(Br)cc2)nn2c(C)c(-c3ccc4ccccc4c3)[nH]c(=O)c12` (stereo not drawn) [Example 3-69, N-[1-(4-Bromophenyl)-2-hydroxyethyl]-3,7-dimethyl-6-(2-naphthyl)-4-oxo-5H-pyrazolo[1,5-a]pyrazine-2-carboxamide] gave an IC50 of 2.5 nM.

For `O=C(N[C@H](CCO)c1ccc(F)cc1)c1nn2cc(-c3cccc(Cl)c3)[nH]c(=O)c2c1C1CC1` [6-679], the IC50 was 1.09 nM.

For `N#Cc1c(C(=O)NC2(c3ccccc3)CC2)nn2cc(-c3ccc4ccccc4c3)[nH]c(=O)c12` [Example 3-49, 3-Cyano-6-(naphthalen-2-yl)-4-oxo-N-(1-phenylcyclopropyl)-4,5-dihydropyrazolo[1,5-a]pyrazine-2-carboxamide], the IC50 was 1.35 nM.

`O=C(N[C@H]1c2ccccc2C[C@H]1O)c1cc2c(=O)[nH]c(-c3ccc4ccccc4c3)cn2n1` [6-72] was tested, and the IC50 was 7.93 nM.

`CN1CCC(NC(=O)c2nn3cc(-c4ccc5ccccc5c4)[nH]c(=O)c3c2C(F)(F)F)(c2ccc(F)cc2)CC1` [Example 1-116, N-[4-(4-Fluorophenyl)-1-methylpiperidin-4-yl]-6-(naphthalen-2-yl)-4-oxo-3-(trifluoromethyl)-4,5-dihydropyrazolo[1,5-a]pyrazine-2-carboxamide] showed an IC50 of 9.55 nM.

`CC(C)(O)[C@@H](NC(=O)c1cc2c(=O)[nH]c(-c3ccc4ccccc4c3)cn2n1)c1ccccc1` [Example 1-3, N-[(1S)-2-Hydroxy-2-methyl-1-phenylpropyl]-6-(naphthalen-2-yl)-4-oxo-4,5-dihydropyrazolo-[1,5-a]pyrazine-2-carboxamide] gave an IC50 of 0.653 nM.

With `Cc1cc(-c2cn3nc(C(=O)N[C@H](C)C(C)(C)C)c(C4CC4)c3c(=O)[nH]2)ccc1Cl` [6-318] the IC50 was 3.2 nM.

`Cc1ccc([C@@H](C)NC(=O)c2nn3cc(-c4ccc5ccccc5c4)[nH]c(=O)c3c2C#N)cc1` [Example 3-53, 3-Cyano-N-[(7R)-1-(4-methylphenyl)ethyl]-6-(naphthalen-2-yl)-4-oxo-4,5-dihydropyrazolo[1,5-a]pyrazine-2-carboxamide] was tested, and the IC50 was 1.45 nM.

`Cc1c(C(=O)NCc2cccc(CN3CCCC3)c2)nn2c(C)c(-c3ccc4ccccc4c3)[nH]c(=O)c12` [Example 3-36, 3,7-Dimethyl-6-(naphthalen-2-yl)-4-oxo-N-({3-[(pyrrolidin-1-yl)methyl]phenyl}methyl)-4,5-dihydropyrazolo[1,5-a]pyrazine-2-carboxamide] was tested, and the IC50 was 6.55 nM.

For `COC[C@@H](NC(=O)c1cc2c(=O)[nH]c(-c3ccc4ccccc4c3)cn2n1)c1ccccc1` [6-51], the IC50 was 2.65 nM.

`Cc1ccc(-c2cn3nc(C(=O)NCCC(O)C(F)(F)F)c(C4CC4)c3c(=O)[nH]2)cc1F` (single isomer, unassigned) [6-368] showed an IC50 of 0.87 nM.

`Cc1cccc2ncc(-c3cn4nc(C(=O)NCC(C)(C)C)c(C(C)C)c4c(=O)[nH]3)cc12` [Example 4-33, N-(2,2-Dimethylpropyl)-6-(5-methylquinolin-3-yl)-4-oxo-3-(propan-2-yl)-4,5-dihydropyrazolo[1,5-a]pyrazine-2-carboxamide] gave an IC50 of 1.9 nM.

For `Cc1c(C(=O)Nc2ccnn2C(C)C)nn2c(C)c(-c3ccc4ccccc4c3)[nH]c(=O)c12` [Example 3-6, 3,7-Dimethyl-6-(naphthalen-2-yl)-4-oxo-N-[1-(propan-2-yl)-1H-pyrazol-5-yl]-4,5-dihydropyrazolo[1,5-a]pyrazine-2-carboxamide], the IC50 was 4.75 nM.

With `Cc1ccc(-c2cn3nc(C(=O)NC(c4ccc(F)cc4)C4(O)CC4)c(C4CC4)c3c(=O)[nH]2)cc1F` (single isomer, unassigned) [6-382] the IC50 was 0.78 nM.
